{"source": "the kinase profiling compilation of Christmann-Franck et al. (2016)", "assay_in_all_cases": "radiometric filter-binding kinase assay, Kinase HotSpot", "details_in_all_cases": "compound 0.5 µM; ATP 10 µM", "key": {"[1]": {"molecular_target": "ACVR1 (human) (UniProt Q04771)"}, "[2]": {"molecular_target": "AURKA (human) (UniProt O14965)", "sequence (O14965 whole entry, looked up)": "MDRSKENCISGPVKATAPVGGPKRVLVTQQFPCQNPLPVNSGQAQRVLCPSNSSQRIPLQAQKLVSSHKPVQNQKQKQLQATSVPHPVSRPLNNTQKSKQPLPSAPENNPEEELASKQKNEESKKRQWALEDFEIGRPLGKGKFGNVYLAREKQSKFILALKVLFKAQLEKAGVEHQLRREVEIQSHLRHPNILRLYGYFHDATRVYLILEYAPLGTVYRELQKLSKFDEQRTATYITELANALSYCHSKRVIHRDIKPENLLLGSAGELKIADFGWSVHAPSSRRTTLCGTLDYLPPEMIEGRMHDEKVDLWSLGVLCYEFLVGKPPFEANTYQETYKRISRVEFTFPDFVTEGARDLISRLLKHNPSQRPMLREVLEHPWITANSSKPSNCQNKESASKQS"}, "[3]": {"molecular_target": "BLK (human) (UniProt P51451)"}, "[4]": {"molecular_target": "BMX (human) (UniProt P51813)"}, "[5]": {"molecular_target": "BRSK2 (human) (UniProt Q8IWQ3)"}, "[6]": {"molecular_target": "CAMK2G (human) (UniProt Q13555)"}, "[7]": {"molecular_target": "CAMK4 (human) (UniProt Q16566)"}, "[8]": {"molecular_target": "CDK1 CCNB1 (human) (UniProt P06493+P14635)"}, "[9]": {"molecular_target": "CHEK2 (human) (UniProt O96017)"}, "[10]": {"molecular_target": "CLK4 (human) (UniProt Q9HAZ1)", "sequence (Q9HAZ1 whole entry, looked up)": "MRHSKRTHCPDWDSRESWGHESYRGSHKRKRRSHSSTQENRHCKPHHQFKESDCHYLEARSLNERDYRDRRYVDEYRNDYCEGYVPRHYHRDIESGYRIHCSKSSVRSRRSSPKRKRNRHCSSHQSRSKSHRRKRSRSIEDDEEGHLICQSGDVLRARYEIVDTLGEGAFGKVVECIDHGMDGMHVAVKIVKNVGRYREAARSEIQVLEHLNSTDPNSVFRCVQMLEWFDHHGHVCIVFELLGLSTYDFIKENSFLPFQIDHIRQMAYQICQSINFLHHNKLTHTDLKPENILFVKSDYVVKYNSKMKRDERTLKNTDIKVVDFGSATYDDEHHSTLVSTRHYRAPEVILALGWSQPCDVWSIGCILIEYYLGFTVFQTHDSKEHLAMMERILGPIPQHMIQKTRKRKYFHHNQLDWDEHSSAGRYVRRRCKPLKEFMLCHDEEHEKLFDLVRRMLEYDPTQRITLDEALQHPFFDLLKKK"}, "[11]": {"molecular_target": "DAPK2 (human) (UniProt Q9UIK4)", "sequence (Q9UIK4 whole entry, looked up)": "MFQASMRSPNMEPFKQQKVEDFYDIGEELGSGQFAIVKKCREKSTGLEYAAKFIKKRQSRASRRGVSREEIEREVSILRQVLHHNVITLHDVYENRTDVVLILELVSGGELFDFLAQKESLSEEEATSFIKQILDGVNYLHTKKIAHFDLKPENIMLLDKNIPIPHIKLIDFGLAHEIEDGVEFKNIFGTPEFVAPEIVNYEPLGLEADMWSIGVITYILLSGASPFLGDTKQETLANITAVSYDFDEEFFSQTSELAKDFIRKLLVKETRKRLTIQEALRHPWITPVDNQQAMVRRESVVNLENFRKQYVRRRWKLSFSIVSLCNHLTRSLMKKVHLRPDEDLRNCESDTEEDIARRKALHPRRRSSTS"}, "[12]": {"molecular_target": "DAPK3 (human) (UniProt O43293)"}, "[13]": {"molecular_target": "DSTYK (human) (UniProt Q6XUX3)"}, "[14]": {"molecular_target": "DYRK4 (human) (UniProt Q9NR20)"}, "[15]": {"molecular_target": "EPHA2 (human) (UniProt P29317)"}, "[16]": {"molecular_target": "EPHA3 (human) (UniProt P29320)"}, "[17]": {"molecular_target": "EPHB1 (human) (UniProt P54762)"}, "[18]": {"molecular_target": "FGFR2 (human) (UniProt P21802)"}, "[19]": {"molecular_target": "FLT1 (human) (UniProt P17948)"}, "[20]": {"molecular_target": "FLT3 (human) (UniProt P36888)"}, "[21]": {"molecular_target": "GRK5 (human) (UniProt P34947)", "sequence (P34947 whole entry, looked up)": "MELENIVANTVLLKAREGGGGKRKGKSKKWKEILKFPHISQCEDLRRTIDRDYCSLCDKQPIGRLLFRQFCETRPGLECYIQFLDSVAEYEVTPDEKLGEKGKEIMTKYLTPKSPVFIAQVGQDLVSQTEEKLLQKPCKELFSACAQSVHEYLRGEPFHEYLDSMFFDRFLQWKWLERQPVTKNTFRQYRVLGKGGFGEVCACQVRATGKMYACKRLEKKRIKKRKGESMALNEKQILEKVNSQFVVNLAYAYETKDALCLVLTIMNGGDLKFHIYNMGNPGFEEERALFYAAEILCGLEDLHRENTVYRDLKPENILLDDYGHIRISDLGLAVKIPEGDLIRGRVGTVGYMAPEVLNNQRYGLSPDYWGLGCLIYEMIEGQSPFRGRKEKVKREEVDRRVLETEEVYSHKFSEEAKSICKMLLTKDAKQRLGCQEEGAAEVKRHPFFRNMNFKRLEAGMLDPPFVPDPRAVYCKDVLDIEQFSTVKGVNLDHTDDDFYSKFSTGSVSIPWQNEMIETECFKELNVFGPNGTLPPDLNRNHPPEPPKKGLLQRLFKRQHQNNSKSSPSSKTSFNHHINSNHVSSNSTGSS"}, "[22]": {"molecular_target": "JAK3 JH1 JH2 (human) (UniProt P52333)"}, "[23]": {"molecular_target": "LCK (human) (UniProt P06239)", "sequence (P06239 whole entry, looked up)": "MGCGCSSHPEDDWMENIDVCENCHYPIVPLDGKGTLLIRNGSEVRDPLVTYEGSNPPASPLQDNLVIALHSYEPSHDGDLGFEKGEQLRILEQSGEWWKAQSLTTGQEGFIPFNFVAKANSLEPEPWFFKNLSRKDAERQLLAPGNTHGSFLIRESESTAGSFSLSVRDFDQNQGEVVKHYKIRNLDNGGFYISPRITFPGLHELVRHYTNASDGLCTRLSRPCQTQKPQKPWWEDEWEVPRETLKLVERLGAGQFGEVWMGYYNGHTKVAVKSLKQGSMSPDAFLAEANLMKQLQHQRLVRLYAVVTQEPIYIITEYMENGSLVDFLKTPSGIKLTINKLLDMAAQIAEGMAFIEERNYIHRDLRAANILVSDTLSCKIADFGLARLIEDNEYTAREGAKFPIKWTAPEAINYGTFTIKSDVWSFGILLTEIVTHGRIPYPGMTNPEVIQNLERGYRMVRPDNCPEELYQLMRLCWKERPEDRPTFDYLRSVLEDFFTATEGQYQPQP"}, "[24]": {"molecular_target": "MAP2K2 (human) (UniProt P36507)"}, "[25]": {"molecular_target": "MAP4K5 (human) (UniProt Q9Y4K4)"}, "[26]": {"molecular_target": "MAPK9 (human) (UniProt P45984)"}, "[27]": {"molecular_target": "MARK3 (human) (UniProt P27448)"}, "[28]": {"molecular_target": "MATK (human) (UniProt P42679)"}, "[29]": {"molecular_target": "MERTK (human) (UniProt Q12866)"}, "[30]": {"molecular_target": "NLK (human) (UniProt Q9UBE8)", "sequence (Q9UBE8 whole entry, looked up)": "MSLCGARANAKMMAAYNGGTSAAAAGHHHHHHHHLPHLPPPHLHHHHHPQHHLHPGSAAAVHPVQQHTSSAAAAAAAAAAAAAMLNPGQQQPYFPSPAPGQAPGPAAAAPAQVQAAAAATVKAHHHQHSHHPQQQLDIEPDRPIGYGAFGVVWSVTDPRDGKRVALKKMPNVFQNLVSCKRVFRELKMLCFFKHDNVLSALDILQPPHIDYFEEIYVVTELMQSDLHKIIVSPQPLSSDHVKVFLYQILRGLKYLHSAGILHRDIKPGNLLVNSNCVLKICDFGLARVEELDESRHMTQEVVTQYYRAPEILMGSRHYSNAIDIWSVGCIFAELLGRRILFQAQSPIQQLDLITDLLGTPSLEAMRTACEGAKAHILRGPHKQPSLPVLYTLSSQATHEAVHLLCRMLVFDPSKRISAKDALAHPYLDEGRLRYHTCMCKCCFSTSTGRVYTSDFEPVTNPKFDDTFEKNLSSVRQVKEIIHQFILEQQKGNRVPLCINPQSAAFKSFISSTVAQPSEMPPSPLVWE"}, "[31]": {"molecular_target": "NTRK2 (human) (UniProt Q16620)"}, "[32]": {"molecular_target": "PAK2 (human) (UniProt Q13177)"}, "[33]": {"molecular_target": "PAK3 (human) (UniProt O75914)"}, "[34]": {"molecular_target": "PLK2 (human) (UniProt Q9NYY3)"}, "[35]": {"molecular_target": "PRKCD (human) (UniProt Q05655)", "sequence (Q05655 whole entry, looked up)": "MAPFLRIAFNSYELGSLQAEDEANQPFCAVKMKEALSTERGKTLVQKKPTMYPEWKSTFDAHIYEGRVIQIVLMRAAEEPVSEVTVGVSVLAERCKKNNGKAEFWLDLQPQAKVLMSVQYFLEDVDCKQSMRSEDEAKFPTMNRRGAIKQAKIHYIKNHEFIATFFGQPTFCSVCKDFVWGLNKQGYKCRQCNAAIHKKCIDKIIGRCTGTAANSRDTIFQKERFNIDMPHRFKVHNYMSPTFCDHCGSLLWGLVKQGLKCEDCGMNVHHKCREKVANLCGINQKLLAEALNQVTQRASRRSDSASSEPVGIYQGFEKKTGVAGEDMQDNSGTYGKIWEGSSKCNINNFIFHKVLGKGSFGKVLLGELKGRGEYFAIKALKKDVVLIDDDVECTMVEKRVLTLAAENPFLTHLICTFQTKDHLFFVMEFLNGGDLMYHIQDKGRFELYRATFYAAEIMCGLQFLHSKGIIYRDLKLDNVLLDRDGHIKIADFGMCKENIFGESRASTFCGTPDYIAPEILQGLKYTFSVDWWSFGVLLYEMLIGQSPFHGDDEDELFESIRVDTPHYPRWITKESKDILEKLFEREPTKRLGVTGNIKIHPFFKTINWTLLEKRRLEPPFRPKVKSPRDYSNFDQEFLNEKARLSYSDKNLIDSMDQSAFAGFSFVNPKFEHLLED"}, "[36]": {"molecular_target": "PRKCG (human) (UniProt P05129)"}, "[37]": {"molecular_target": "PRKG2 (human) (UniProt Q13237)", "sequence (Q13237 whole entry, looked up)": "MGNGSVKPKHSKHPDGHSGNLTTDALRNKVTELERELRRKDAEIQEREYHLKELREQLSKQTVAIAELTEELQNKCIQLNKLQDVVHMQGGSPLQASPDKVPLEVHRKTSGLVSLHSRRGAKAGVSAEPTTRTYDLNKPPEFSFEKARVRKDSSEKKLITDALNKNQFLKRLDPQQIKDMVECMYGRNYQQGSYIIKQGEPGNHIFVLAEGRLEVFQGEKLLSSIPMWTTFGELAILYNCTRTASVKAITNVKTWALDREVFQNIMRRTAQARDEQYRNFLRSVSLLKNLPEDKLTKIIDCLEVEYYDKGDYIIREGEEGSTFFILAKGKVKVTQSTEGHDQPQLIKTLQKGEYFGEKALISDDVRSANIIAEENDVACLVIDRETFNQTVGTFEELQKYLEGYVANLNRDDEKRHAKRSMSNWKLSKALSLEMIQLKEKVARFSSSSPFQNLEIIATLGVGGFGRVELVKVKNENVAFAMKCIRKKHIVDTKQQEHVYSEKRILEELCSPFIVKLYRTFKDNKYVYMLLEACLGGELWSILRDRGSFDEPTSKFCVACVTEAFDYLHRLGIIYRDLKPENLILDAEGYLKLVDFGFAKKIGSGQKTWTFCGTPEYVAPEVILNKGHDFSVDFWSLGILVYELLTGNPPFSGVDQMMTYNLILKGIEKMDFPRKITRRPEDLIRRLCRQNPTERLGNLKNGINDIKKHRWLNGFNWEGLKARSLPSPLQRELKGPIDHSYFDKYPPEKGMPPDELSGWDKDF"}, "[38]": {"molecular_target": "ROCK2 (human) (UniProt O75116)"}, "[39]": {"molecular_target": "STK33 (human) (UniProt Q9BYT3)"}, "[40]": {"molecular_target": "TEC (human) (UniProt P42680)"}, "[41]": {"molecular_target": "ULK1 (human) (UniProt O75385)"}, "[42]": {"molecular_target": "ULK2 (human) (UniProt Q8IYT8)"}}, "data": [{"smiles": "N#C/C(=C(/N)Sc1ccc(N)cc1)c1ccccc1C(F)(F)F", "values": [{"measurement": "residual activity", "setting": "[1]", "result": 101, "unit": "%"}, {"measurement": "residual activity", "setting": "[2]", "result": 103, "unit": "%"}, {"measurement": "residual activity", "setting": "[3]", "result": 111, "unit": "%"}, {"measurement": "residual activity", "setting": "[4]", "result": 99.7, "unit": "%"}, {"measurement": "residual activity", "setting": "[5]", "result": 102, "unit": "%"}, {"measurement": "residual activity", "setting": "[6]", "result": 106, "unit": "%"}, {"measurement": "residual activity", "setting": "[7]", "result": 110, "unit": "%"}, {"measurement": "residual activity", "setting": "[8]", "result": 105, "unit": "%"}, {"measurement": "residual activity", "setting": "[9]", "result": 97.7, "unit": "%"}, {"measurement": "residual activity", "setting": "[10]", "result": 93.4, "unit": "%"}, {"measurement": "residual activity", "setting": "[11]", "result": 112, "unit": "%"}, {"measurement": "residual activity", "setting": "[12]", "result": 102, "unit": "%"}, {"measurement": "residual activity", "setting": "[13]", "result": 113, "unit": "%"}, {"measurement": "residual activity", "setting": "[14]", "result": 92.4, "unit": "%"}, {"measurement": "residual activity", "setting": "[15]", "result": 104, "unit": "%"}, {"measurement": "residual activity", "setting": "[16]", "result": 105, "unit": "%"}, {"measurement": "residual activity", "setting": "[17]", "result": 98.8, "unit": "%"}, {"measurement": "residual activity", "setting": "[18]", "result": 101, "unit": "%"}, {"measurement": "residual activity", "setting": "[19]", "result": 85.4, "unit": "%"}, {"measurement": "residual activity", "setting": "[20]", "result": 107, "unit": "%"}, {"measurement": "residual activity", "setting": "[21]", "result": 102, "unit": "%"}, {"measurement": "residual activity", "setting": "[22]", "result": 101, "unit": "%"}, {"measurement": "residual activity", "setting": "[23]", "result": 107, "unit": "%"}, {"measurement": "residual activity", "setting": "[24]", "result": 94.5, "unit": "%"}, {"measurement": "residual activity", "setting": "[25]", "result": 94, "unit": "%"}, {"measurement": "residual activity", "setting": "[26]", "result": 110, "unit": "%"}, {"measurement": "residual activity", "setting": "[27]", "result": 107, "unit": "%"}, {"measurement": "residual activity", "setting": "[28]", "result": 90.7, "unit": "%"}, {"measurement": "residual activity", "setting": "[29]", "result": 80.7, "unit": "%"}, {"measurement": "residual activity", "setting": "[30]", "result": 108, "unit": "%"}, {"measurement": "residual activity", "setting": "[31]", "result": 103, "unit": "%"}, {"measurement": "residual activity", "setting": "[32]", "result": 98, "unit": "%"}, {"measurement": "residual activity", "setting": "[33]", "result": 99.2, "unit": "%"}, {"measurement": "residual activity", "setting": "[34]", "result": 98.1, "unit": "%"}, {"measurement": "residual activity", "setting": "[35]", "result": 97.5, "unit": "%"}, {"measurement": "residual activity", "setting": "[36]", "result": 99.5, "unit": "%"}, {"measurement": "residual activity", "setting": "[37]", "result": 113, "unit": "%"}, {"measurement": "residual activity", "setting": "[38]", "result": 100, "unit": "%"}, {"measurement": "residual activity", "setting": "[39]", "result": 92.2, "unit": "%"}, {"measurement": "residual activity", "setting": "[40]", "result": 109, "unit": "%"}, {"measurement": "residual activity", "setting": "[41]", "result": 99.6, "unit": "%"}, {"measurement": "residual activity", "setting": "[42]", "result": 115, "unit": "%"}]}, {"smiles": "CNc1cc2c(Nc3cccc(Br)c3)ncnc2cn1", "values": [{"measurement": "residual activity", "setting": "[1]", "result": 104, "unit": "%"}, {"measurement": "residual activity", "setting": "[2]", "result": 85.1, "unit": "%"}, {"measurement": "residual activity", "setting": "[3]", "result": 103, "unit": "%"}, {"measurement": "residual activity", "setting": "[4]", "result": 93.9, "unit": "%"}, {"measurement": "residual activity", "setting": "[5]", "result": 90.9, "unit": "%"}, {"measurement": "residual activity", "setting": "[6]", "result": 105, "unit": "%"}, {"measurement": "residual activity", "setting": "[7]", "result": 104, "unit": "%"}, {"measurement": "residual activity", "setting": "[8]", "result": 104, "unit": "%"}, {"measurement": "residual activity", "setting": "[9]", "result": 85.7, "unit": "%"}, {"measurement": "residual activity", "setting": "[10]", "result": 60.9, "unit": "%"}, {"measurement": "residual activity", "setting": "[11]", "result": 136, "unit": "%"}, {"measurement": "residual activity", "setting": "[12]", "result": 90.9, "unit": "%"}, {"measurement": "residual activity", "setting": "[13]", "result": 94.1, "unit": "%"}, {"measurement": "residual activity", "setting": "[14]", "result": 87.5, "unit": "%"}, {"measurement": "residual activity", "setting": "[15]", "result": 95.3, "unit": "%"}, {"measurement": "residual activity", "setting": "[16]", "result": 96.1, "unit": "%"}, {"measurement": "residual activity", "setting": "[17]", "result": 90.2, "unit": "%"}, {"measurement": "residual activity", "setting": "[18]", "result": 96.3, "unit": "%"}, {"measurement": "residual activity", "setting": "[19]", "result": 83.5, "unit": "%"}, {"measurement": "residual activity", "setting": "[20]", "result": 71.2, "unit": "%"}, {"measurement": "residual activity", "setting": "[21]", "result": 120, "unit": "%"}, {"measurement": "residual activity", "setting": "[22]", "result": 103, "unit": "%"}, {"measurement": "residual activity", "setting": "[23]", "result": 96.7, "unit": "%"}, {"measurement": "residual activity", "setting": "[24]", "result": 90.4, "unit": "%"}, {"measurement": "residual activity", "setting": "[25]", "result": 77.1, "unit": "%"}, {"measurement": "residual activity", "setting": "[26]", "result": 96.5, "unit": "%"}, {"measurement": "residual activity", "setting": "[27]", "result": 82.2, "unit": "%"}, {"measurement": "residual activity", "setting": "[28]", "result": 88, "unit": "%"}, {"measurement": "residual activity", "setting": "[29]", "result": 87.5, "unit": "%"}, {"measurement": "residual activity", "setting": "[30]", "result": 84.3, "unit": "%"}, {"measurement": "residual activity", "setting": "[31]", "result": 94.3, "unit": "%"}, {"measurement": "residual activity", "setting": "[32]", "result": 92.7, "unit": "%"}, {"measurement": "residual activity", "setting": "[33]", "result": 98.8, "unit": "%"}, {"measurement": "residual activity", "setting": "[34]", "result": 97.5, "unit": "%"}, {"measurement": "residual activity", "setting": "[35]", "result": 94.7, "unit": "%"}, {"measurement": "residual activity", "setting": "[36]", "result": 105, "unit": "%"}, {"measurement": "residual activity", "setting": "[37]", "result": 102, "unit": "%"}, {"measurement": "residual activity", "setting": "[38]", "result": 99.5, "unit": "%"}, {"measurement": "residual activity", "setting": "[39]", "result": 95.2, "unit": "%"}, {"measurement": "residual activity", "setting": "[40]", "result": 109, "unit": "%"}, {"measurement": "residual activity", "setting": "[41]", "result": 98.8, "unit": "%"}, {"measurement": "residual activity", "setting": "[42]", "result": 119, "unit": "%"}]}]}
